Experiments:
Type in all cases: cell-based
[1] = tested on: LNCaP; assay: Cell growth inhibition assay, prostate cancer cell line LNCaP (medium with 10 ng/mL IL-6); conditions: Homo sapiens, medium supplemented with 10 ng/mL of IL-6, 10,000 cells/well
[2] = tested on: DU-145; assay: Cell growth inhibition assay, prostate cancer cell line DU-145; conditions: Homo sapiens, DU-145 prostate cancer cell line
How it was run: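 Seed DU-145/HCT116 3,000 cells/well, SW626 5,000 cells/well; add compound dilution series; incubate 72–96 h, 37° C., 5% CO2; microscope check for precipitate; CellTiter-Glo, luminescence. Blank = no cells; vehicle = 0.1% DMSO.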

[3] = target: T1, STAT3 (Homo sapiens, UniProt P40763); assay: STAT3 reporter gene assay (luciferase), LNCaP stable cell line (pSTAT3-TA-luc), IL-6 stimulation
T1 construct: plasmid pSTAT3-TA-luc), which contains a stably operating STAT3 promoter; endogenous in cells
T1 sequence (P40763 whole entry): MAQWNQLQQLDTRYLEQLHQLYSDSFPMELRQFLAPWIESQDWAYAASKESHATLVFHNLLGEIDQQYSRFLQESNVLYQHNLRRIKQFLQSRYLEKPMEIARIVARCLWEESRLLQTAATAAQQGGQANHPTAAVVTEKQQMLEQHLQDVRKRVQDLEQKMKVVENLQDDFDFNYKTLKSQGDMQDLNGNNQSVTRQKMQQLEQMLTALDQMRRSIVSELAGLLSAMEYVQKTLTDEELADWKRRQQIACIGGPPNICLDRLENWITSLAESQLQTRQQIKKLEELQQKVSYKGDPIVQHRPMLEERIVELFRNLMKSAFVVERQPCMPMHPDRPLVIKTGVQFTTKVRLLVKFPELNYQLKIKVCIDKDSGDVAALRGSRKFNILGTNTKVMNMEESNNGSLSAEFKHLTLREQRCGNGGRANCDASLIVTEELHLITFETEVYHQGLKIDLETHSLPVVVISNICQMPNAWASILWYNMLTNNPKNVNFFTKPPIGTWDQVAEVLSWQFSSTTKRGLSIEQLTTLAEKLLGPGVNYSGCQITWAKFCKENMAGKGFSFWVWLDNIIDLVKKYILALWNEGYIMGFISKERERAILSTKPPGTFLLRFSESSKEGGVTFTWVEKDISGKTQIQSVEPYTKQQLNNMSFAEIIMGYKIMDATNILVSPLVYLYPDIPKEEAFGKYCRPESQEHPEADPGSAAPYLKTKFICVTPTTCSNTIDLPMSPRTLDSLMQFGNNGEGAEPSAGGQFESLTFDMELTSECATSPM
How it was run: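 Cytotoxicity was run on a duplicate plate with CellTiter-Glo, while the other plate gave luciferase read-outs from lysed LNCaP pSTAT3-TA-luc reporter cells. Cells were treated with graded compound concentrations plus IL-6 (10 ng/mL final) for 24–48 h in 3% DCC-FBS medium. Unstimulated and stimulated wells served as negative and positive controls.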

[4] = tested on: HEL92.1.7; assay: Cell growth inhibition assay, blood cancer cell line HEL92.1.7; conditions: Homo sapiens, HEL 92.1.7, HEL92.1.7 blood cancer cell line
Procedure: The inhibitory effects of the compounds of the present invention against the growth of cancer cells were evaluated as shown below. The cancer cell lines including stomach cancer cell line (AGS), breast cancer cell lines (MDA-MB-231, MDA-MB-468, and BT-549), prostate cancer cell lines (LNCaP and DU-145), colon cancer cell line (HCT116), ovarian cancer cell line (SW626), liver cancer cell line (Hep3B), kidney cancer cell line (ACHN), lung cancer cell line (NCI-H23) and blood cancer cell lines (HEL92.1.7 and U266) were cultured under the protocol provided by each supplier. A medium supplemented with 10 ng/mL of IL-6 was used for LNCaP, a prostate cancer cell line, when treated with a drug. Each type of cells to be used in experiments were sub-cultured in a 96-well plate by counting the exact number of cells using Tali™ Image-based Cytometer (Life Technologies). In a 96-well plate, AGS, HCT116, and DU-145 were employed with 3,000 cells/well; NCI-H23, SW626, Hep3B, ACHN, BT-549, MDA-MB-231, HEL92.1.7, and U266 were employed with 5,000 cells/well; and LNCaP and MDA-MB-468 were employed with 10,000 cells/well. The cells were treated with the compounds listed in Examples which were diluted in various concentrations. Upon completion of the compounds treatment, AGS, HCT116, SW626, DU145, NCI-H23, Hep3B, ACHN, BT-549, LNCaP, HEL92.1.7, and U266 cells were cultured at 37° C. under 5% CO2 for from 72 to 96 hours, and MDA-MB-231 and MDA-MB-468 cells were cultured at 37° C. in air for from 72 to 96 hours. Subsequently, the cells were observed under microscope and drug precipitation and particular findings were investigated and recorded. And then, the 96-well plate was placed at room temperature for 30 minutes, added with 20 μL/well of CellTiter-Glo solution (Cat No. G7573, Promega) and shaken for 10 minutes, followed by being subjected to the measurement using PHERAstar™ microplate reader (BMG LABTECH) according to the supplier's general luminometer protocol. Wells where only culture liquid added without cell plating were used as a negative control, whereas wells where culture liquid containing 0.1% DMSO instead of the compounds listed in Examples were used as a positive control.

SMILES | IC50 [1] | IC50 [2] | IC50 [3] | IC50 [4]
CC(C)Oc1cc(OC(F)(F)F)cc(C(C)(C)c2cc(Cl)cc(NC(=O)c3cc4cc(NS(=O)(=O)CCN(C)O)ccc4s3)c2)c1 [Example 210, N-(3-chloro-5-(2-(3-isopropoxy-5-(trifluoromethoxy)phenyl)propan-2-yl)phenyl)-5-((2-(hydroxy(methyl)amino)ethyl)sulfonamido)benzo[b]thiophene-2-carboxamide] | 0.28 µM | 0.073 µM | 0.14 µM | 0.57 µM
CC(C)(c1cc(F)cc(NC(=O)c2cc3cc(NS(C)(=O)=O)ccc3s2)c1)c1cc(CN2CCOCC2)cc(OC(F)(F)C(F)F)c1 [Example 140, N-(3-fluoro-5-(2-(3-(morpholinomethyl)-5-(1,1,2,2-tetrafluoroethoxy)phenyl)propan-2-yl)phenyl)-5-(methylsulfonamido)benzo[b]thiophene-2-carboxamide] | 0.13 µM | 0.053 µM | 0.09 µM | 0.3 µM
CC(C)Oc1cc(N2CC[N+](C)([O-])CC2)cc(C(C)(C)c2cc(Cl)cc(NC(=O)c3cc4cc(NS(C)(=O)=O)ccc4s3)c2)c1 [Example 144] | 2.6 µM | 1 µM | 5.2 µM | > 1.1 µM
CC(C)Oc1cc(OC(F)(F)F)cc(C(C)(C)c2cc(Cl)cc(NC(=O)c3cc4cc(NS(=O)(=O)c5cnn(C)c5)ccc4s3)c2)c1 [Example 201, N-(3-chloro-5-(2-(3-isopropoxy-5-(trifluoromethoxy)phenyl)propan-2-yl)phenyl)-5-((1-methyl-1H-pyrazole)-4-sulfonamido)benzo[b]thiophene-2-carboxamide] | 0.064 µM | 0.018 µM | 0.029 µM | 0.053 µM
COc1cc(F)cc(C(C)(C)c2cc(Cl)cc(NC(=O)c3cc4cc(NS(C)(=O)=O)ccc4s3)c2)c1 [Example 67, N-(3-chloro-5-(2-(3-fluoro-5-methoxyphenyl)propan-2-yl)phenyl)-5-(methylsulfonamido)benzo[b]thiophene-2-carboxamide] | 0.037 µM | 0.042 µM | 0.067 µM | 0.11 µM
COc1ccc(OC)c(C(C)(C)c2cc(Cl)cc(NC(=O)c3cc4cc(NS(C)(=O)=O)ccc4s3)c2)c1 [Example 156, N-(3-chloro-5-(2-(2,5-dimethoxyphenyl)propan-2-yl)phenyl)-5-(methylsulfonamido)benzo[b]thiophene-2-carboxamide] | 0.14 µM | 0.25 µM | 0.23 µM | 0.74 µM
CC(C)Oc1cc(N2CCN(C)CC2)cc(C(C)(C)c2cc(Cl)cc(NC(=O)c3cc4cc(NS(C)(=O)=O)ccc4s3)c2)c1 [Example 147, N-(3-chloro-5-(2-(3-isopropoxy-5-(4-methylpiperazin-1-yl)phenyl)propan-2-yl)phenyl)-5-(methylsulfonamido)benzo[b]thiophene-2-carboxamide] | 0.8 µM | 0.47 µM | 0.67 µM | 1.04 µM
CC(C)Oc1cc(OC(F)(F)F)cc(C(C)(C)c2cc(Cl)cc(NC(=O)c3cc4cc(NC(=O)OC(C)(C)C)ccc4s3)c2)c1 [Example 194, tert-butyl (2-((3-chloro-5-(2-(3-isopropoxy-5-(trifluoromethoxy)phenyl)propan-2-yl)phenyl)carbamoyl)benzo[b]thiophen-5-yl)carbamate] | > 1.1 µM | > 1.1 µM | > 10 µM | > 1.1 µM
O=C(Nc1cc(Cl)cc(-c2ccc(F)cc2F)c1)c1cc2cc(NS(=O)(=O)C3CCOC3)c(F)cc2s1 (stereo not drawn) [Example 330, N-(5-chloro-2′,4′-difluoro-[1,1′-biphenyl]-3-yl)-6-fluoro-5-((tetrahydrofuran)-3-sulfonamido)benzo[b]thiophene-2-carboxamide] | 0.011 µM | 0.005 µM | 0.029 µM | 0.057 µM
CC(C)Oc1cc(-c2cnn(C)c2)cc(C(C)(C)c2cc(Cl)cc(NC(=O)c3cc4cc(NS(C)(=O)=O)ccc4s3)c2)c1 [Example 143, N-(3-chloro-5-(2-(3-isopropoxy-5-(1-methyl-1H-pyrazol-4-yl)phenyl)propan-2-yl)phenyl)-5-(methylsulfonamido)benzo[b]thiophene-2-carboxamide] | 0.47 µM | 0.18 µM | 0.29 µM | 0.48 µM

Second part, the compound after the results:

IC50 [1] | IC50 [2] | IC50 [3] | IC50 [4] | SMILES
0.014 µM | 0.007 µM | 0.007 µM | 0.013 µM | CCS(=O)(=O)Nc1ccc2sc(C(=O)Nc3cc(Cl)cc(C(C)(C)c4cc(OC(C)C)cc(OC(F)(F)F)c4)c3)cc2c1 [Example 202, N-(3-chloro-5-(2-(3-isopropoxy-5-(trifluoromethoxy)phenyl)propan-2-yl)phenyl)-5-(ethylsulfonamido)benzo[b]thiophene-2-carboxamide]
0.053 µM | 0.027 µM | 0.043 µM | 0.099 µM | CC(C)Oc1cc(OC(F)(F)F)cc(C(C)(C)c2cc(Cl)cc(NC(=O)c3cc4cc(NS(=O)(=O)CCN5CCOCC5)ccc4s3)c2)c1 [Example 209, N-(3-chloro-5-(2-(3-isopropoxy-5-(trifluoromethoxy)phenyl)propan-2-yl)phenyl)-5-((2-morpholinoethyl)sulfonamido)benzo[b]thiophene-2-carboxamide]
0.075 µM | 0.022 µM | 0.01 µM | 0.081 µM | CC(C)Oc1cc(OC(F)(F)F)cc(C(C)(C)c2cc(Cl)cc(NC(=O)c3cc4cc(N5CCCS5(=O)=O)ccc4s3)c2)c1 [Example 212, N-(3-chloro-5-(2-(3-isopropoxy-5-(trifluoromethoxy)phenyl)propan-2-yl)phenyl)-5-(1,1-dioxidoisothiazolidin-2-yl)benzo[b]thiophene-2-carboxamide]
1 µM | 0.41 µM | 0.31 µM | > 1.1 µM | CC(C)(c1cc(Cl)cc(NC(=O)c2cc3cc(NS(C)(=O)=O)ccc3s2)c1)c1ccc[nH]1 [Example 166, N-(3-(2-(1H-pyrrol-2-yl)propan-2-yl)-5-chlorophenyl)-5-(methylsulfonamido)benzo[b]thiophene-2-carboxamide]
0.015 µM | 0.011 µM | 0.11 µM | 0.69 µM | CC(C)(C)OC(=O)N1CCC(Oc2cc(OC(F)(F)F)cc(C(C)(C)c3cc(Cl)cc(NC(=O)c4cc5cc(NS(C)(=O)=O)ccc5s4)c3)c2)CC1 [Example 95, tert-butyl 4-(3-(2-(3-chloro-5-(5-(methylsulfonamido)benzo[b]thiophene-2-carboxamido)phenyl)propan-2-yl)-5-(trifluoromethoxy)phenoxy)piperidine-1-carboxylate]
0.15 µM | 0.089 µM | 0.053 µM | 0.64 µM | CN(c1cc(Cl)cc(NC(=O)c2cc3cc(NS(C)(=O)=O)ccc3s2)c1)c1ccc(F)cc1F [Example 439, N-(3-chloro-5-((2,4-difluorophenyl)(methyl)amino)phenyl)-5-(methylsulfonamido)benzo[b]thiophene-2-carboxamide]
> 1.1 µM | > 1.1 µM | > 10 µM | > 1.1 µM | CC(C)Oc1cc(OC(F)(F)F)cc(C(C)(C)c2cc(Cl)cc(NC(=O)c3cc4c(N5CCOCC5)c(NS(C)(=O)=O)ccc4s3)c2)c1 [Example 66, N-(3-chloro-5-(2-(3-isopropoxy-5-(trifluoromethoxy)phenyl)propan-2-yl)phenyl)-5-(methylsulfonamido)-4-morpholinobenzo[b]thiophene-2-carboxamide]
0.056 µM | 0.012 µM | 0.032 µM | 0.078 µM | CC(C)Oc1cc(Br)cc(C(C)(C)c2cc(Cl)cc(NC(=O)c3cc4cc(NS(C)(=O)=O)ccc4s3)c2)c1 [Example 91, N-(3-(2-(3-bromo-5-isopropoxyphenyl)propan-2-yl)-5-chlorophenyl)-5-(methylsulfonamido)benzo[b]thiophene-2-carboxamide]
